Test results: patent EP3991732A1, “USE OF CLOFAZIMINE IN HEPATOCELLULAR CARCINOMA” (UNIVERSITE DE GENEVE, priority 2020, dated 2022)

Legend:
[1] = system: SNU398; test: MTT survival assay, SNU398; assay type: cell-based, human
Protocol: (§1) The four hepatocellular carcinoma (HCC) cell lines were tested in MTT survival assay with clofazimine as described below: 50 µl of the indicated cell lines re-suspended at 60'000 cells/ml for HepG2, Hep3B, at 35'000/ml for Huh7 and at 40'000/ml for SNU398 were added into each well of a transparent 384-well plate. The cells were maintained in DMEM containing 10% FBS for Hep3B; RPMI with 10% FBS for SNU398; DMEM without glucose containing 10% FBS and 1g/L glucose for Huh7 and MEM without glucose containing 10% FBS for HepG2 and incubated at 37°C, 5% CO2 overnight. The medium of each well was replaced by 100 µl fresh medium the next day containing the indicated concentrations of clofazimine. After incubation for 4-7 days (depending on the growth rate of line), the medium in each well was replaced by 50 µl of 0.5 mg/ml Thiazolyl blue (Carl Roth) solution in 1xPBS. The plates were incubated for 3h at 37°C. Then the solution was removed and 50 µl DMSO was added into each well. Absorbance at 570 nm was measured in a Tecan Infinite M200 PRO plate reader.

[2] = system: Hep3B; test: MTT survival assay, Hep3B; assay type: cell-based, human
Protocol: as §1

[3] = system: Huh7; test: MTT survival assay, Huh7; assay type: cell-based; settings: Homo sapiens, Huh-7, Huh7 cells, incubation 4-7 days
Protocol: as §1

[4] = system: HepG2; test: MTT survival assay, HepG2; assay type: cell-based; settings: Homo sapiens, HepG2 cells, incubation 4-7 days
Protocol: as §1

[5] = system: Wnt signalling (SNU398); test: TopFlash dual luciferase assay, SNU398; assay type: cell-based, human
Protocol: (§2) Briefly, 50 µl of indicated cell lines at 84'000/ml for Huh7, or 96'000/ml for SNU398, or 144'000/ml for HepG2, Hep3B were distributed in a white opaque 384-well plate. The cells were maintained in their respective culture mediums and incubated at 37°C, 5% CO2 overnight for attachment. Afterwards, the cells are double-transfected (1:1 mixture) with the Wnt-specific TopFlash reporter plasmid (Syngene) and a Wnt-independent CMV-Renilla plasmid monitoring the general level of cell transcription (Addgene, Cambridge, MA, USA). The relative nature of this representation (ratio of the TopFlash to the CMV-Renilla levels) permits to compare Wnt pathway levels across cell types, being independent from individual cell transfection efficiency.
(§3) Transfection was carried out as described in the manufacturer's protocol using 12 µg/ml of DNA and 40 µl/ml XtremeGENE 9 reagent (Roche). The next day, the medium of each well was replaced 30 µl fresh medium containing Wnt3a (500 ng/ml) (purified as described by (Koval and Katanaev, 2011, Biochemical Journal 433, 435) or GSK3β inhibitor (CHIR99021, Sigma-Aldrich) and clofazimine at 5, 10, and 15 µM concentrations (following 1h of preincubation with the compound). After overnight incubation, the supernatant in each well was removed and the luciferase activity was measured as described (Koval and Katanaev, 2011, supra). […]

[6] = system: Wnt signalling (Hep3B); test: TopFlash dual luciferase assay, Hep3B; assay type: cell-based, human
Protocol: as §2, §3

[7] = system: Wnt signalling (Huh7); test: TopFlash dual luciferase assay, Huh7; assay type: cell-based, human
Protocol: as §2, §3

[8] = system: Wnt signalling (HepG2); test: TopFlash dual luciferase assay, HepG2; assay type: cell-based, human
Protocol: as §2, §3

[9] = clofazimine 5, 10, 15 µM, Wnt3a 500 ng/ml
[10] = versus relatively low basal level

Structure (SMILES) | IC50 ([1]; Homo sapiens, SNU-398, SNU398 cells, MTT, incubation 4-7 days) | stronger sensitivity to growth inhibition than HepG2 and Huh7 ([1]; SNU398 versus HepG2 and Huh7, MTT assay) | stronger sensitivity to growth inhibition than HepG2 and Huh7 ([2]; Hep3B versus HepG2 and Huh7, MTT assay) | IC50 ([2]; Homo sapiens, Hep3B cells, MTT, incubation 4-7 days) | IC50 [3] | IC50 [4] | inhibiting effect on Wnt signaling (Wnt3a-induced response in the TopFlash assay) [5, 9] | inhibiting effect on Wnt signaling (Wnt3a-induced response in the TopFlash assay) [6, 9] | inhibiting effect on Wnt signaling (Wnt3a-induced response in the TopFlash assay) [7, 9] | inhibiting effect on Wnt signaling (Wnt3a-induced response in the TopFlash assay) [8, 9] | stimulation of Wnt signalling levels by activator (TopFlash) ([5]; versus very high basal level) | stimulation of Wnt signalling levels by activator (TopFlash) [6, 10] | stimulation of Wnt signalling levels by activator (TopFlash) [7, 10] | stimulation of Wnt signalling levels by activator (TopFlash) ([8]; versus very high basal level)
CC(C)N=c1cc2n(-c3ccc(Cl)cc3)c3ccccc3nc-2cc1Nc1ccc(Cl)cc1 [clofazimine, N,5-bis(4-chlorophenyl)-3-(propan-2-ylimino)-3,5-dihydrophenazin-2-amine] | 1000 to 2000 nM | > 10 fold | > 10 fold | 1000 to 2000 nM | 13 µM | 17 µM | inhibited | inhibited | non-responsive | non-responsive |  |  |  | 
Cc1c[nH]c(-c2cnc(NCCNc3ccc(C#N)cn3)nc2-c2ccc(Cl)cc2Cl)n1 [CHIR99021] |  |  |  |  |  |  |  |  |  |  | not at all or to at best limited extent further increased | strongly stimulated | strongly stimulated | not at all or to at best limited extent further increased
